# Data from patent publication US20110118229A1, “2-ARYLMETHYLAZETIDINE-CARBAPENEM-3-CARBOXYLIC ACID ESTER DERIVATIVE OR ITS SALT, PROCESS FOR THE PREPARATION THEREOF AND PHARMACEUTICAL COMPOSITION COMPRISING THE SAME” (KUKJE PHARM. IND. CO., LTD., priority 2007, published 2011).
# Tests used:
# I.C.R. mice = experiment: Acute Toxicity Test, oral, mice; format: in vivo; conditions: observed 7 days
# Method: The acute toxicity of the compound of Example 1 was tested using several groups of I.C.R. mice each of 10 mice. 500 mg/kg, 1,000 mg/kg, and 2,000 mg/kg doses of the compound of Example 1 were orally administered. […] Thus, LD50 was placed at a level higher than 2,000 mg/kg. The compound of Example 1 is thus a largely non-toxic antibiotic.
# In addition, acute toxicity of the compounds of Examples 10 and 17 was tested using two groups of I.C.R. mice each of 5 mice/2 groups. 1,000 mg/kg, 2,000 mg/kg, and 3,000 mg/kg doses of the compounds of Examples 10 to 17 were orally administered. […] Thus, LD50 was placed at a level higher than 3,000 mg/kg. Therefore, the compounds of Examples 10 to and 17 are non-toxic antibiotics.
# [1] = Test of Pharmacokinetics in mice (blood concentration by bioassay); conditions: I.C.R mice, 40 mg/kg; for AUC (area under blood concentration curve): bioassay
# Method: The pharmacokinetics of the compounds of the present invention was determined using mice. […] Blood samples were collected from mice tails at 10 min., 20 min., 30 min., 45 min., 1 hour, 1.5 hours, 2 hours, 3 hours and 4 hours after the administration. […] Blood samples were collected from mice tails in the same manner described above.
# The concentrations of each compound in blood were measured using bioassay methods: Agar plate was prepared with agar medium containing 1% Streptococcus Pyogenes 77A culture solution, and the blood samples and the diluted standards (each of which were obtained by dilution of the already-known concentration by two times) were added to wells formed on the plates. The plate was stored at 4° C. for 1 hour to is allow the sample to spread, and incubated at 37° C. for 18 hours. Diameters of each inhibition-circle were measured and then the concentration of the compounds in blood was calculated, based on the calibration curve obtained from the diluted standards.
# [2] = tested on: Streptococcus ATCC 496 (4); experiment: Minimum Inhibitory Concentration (MIC); format: cell-based
# Description: (§1) The metabolite has a wide spectrum of antibacterial activities against Gram-negative and Gram-positive bacteria and excellent antibacterial activities against resistant bacteria such as methicillin-resistant Staphylococcus aurus (MRSA) and quinolone-resistant strains (QRS), as in WO2006/025634 by the present inventors.
# [3] = tested on: Enterobacter cloacae ATCC 13880; experiment: Minimum Inhibitory Concentration (MIC); format: cell-based
# Description: as §1
# [4] = tested on: Streptococcus pneumoniae Pen. S (4); experiment: Minimum Inhibitory Concentration (MIC); format: cell-based; conditions: 4 strains
# Description: as §1
# GBBS ATCC 12386 = experiment: Minimum Inhibitory Concentration (MIC); format: cell-based
# Description: as §1
# [5] = tested on: Klebsiella pneumoniae ATCC 13883; experiment: Minimum Inhibitory Concentration (MIC); format: cell-based
# Description: as §1
# Klebsiella oxytoca 1082 = experiment: Minimum Inhibitory Concentration (MIC); format: cell-based; conditions: strain 1082
# Description: as §1
# [6] = tested on: Streptococcus faecium (1); experiment: Minimum Inhibitory Concentration (MIC); format: cell-based; conditions: 1 strain
# Description: as §1
# [7] = tested on: Enterobacter cloacae P 99(2)3; experiment: Minimum Inhibitory Concentration (MIC); format: cell-based
# Description: as §1
# [8] = tested on: Staphylococcus aureus (2); experiment: Minimum Inhibitory Concentration (MIC); format: cell-based; conditions: 2 strains
# Description: as §1
# [9] = tested on: Moraxella catarrhalis AMP S(3); experiment: Minimum Inhibitory Concentration (MIC); format: cell-based; conditions: 3 strains
# Description: as §1
# [10] = tested on: Staphylococcus aureus ATCC 29213; experiment: Minimum Inhibitory Concentration (MIC); format: cell-based
# Description: as §1
# [11] = tested on: Salmonella typhimurium 179; experiment: Minimum Inhibitory Concentration (MIC); format: cell-based; conditions: strain 179
# Description: as §1
# [12] = tested on: Streptococcus pneumoniae Pen. R (4); experiment: Minimum Inhibitory Concentration (MIC); format: cell-based; conditions: 4 strains
# Description: as §1
# [13] = tested on: Streptococcus pyogenes (2); experiment: Minimum Inhibitory Concentration (MIC); format: cell-based; set-up: unit not given here; conditions: 2 strains
# Description: as §1
# [14] = tested on: Streptococcus Levo. R (4); experiment: Minimum Inhibitory Concentration (MIC); format: cell-based; set-up: unit not given here; conditions: 4 strains
# Description: as §1
# [15] = tested on: Moraxella catarrhalis AMP R(3); experiment: Minimum Inhibitory Concentration (MIC); format: cell-based; set-up: unit not given here; conditions: 3 strains
# Description: as §1
# [16] = tested on: Streptococcus Levo. S (4); experiment: Minimum Inhibitory Concentration (MIC); format: cell-based; set-up: unit not given here; conditions: 4 strains
# Description: as §1
# Escherichia coli (4) = experiment: Minimum Inhibitory Concentration (MIC); format: cell-based; set-up: unit not given here; conditions: 4 strains
# Description: as §1
# [17] = tested on: Klebsiella pneumoniae (4); experiment: Minimum Inhibitory Concentration (MIC); format: cell-based; set-up: unit not given here; conditions: 4 strains
# Description: as §1
# [18] = tested on: Staphylococcus aureus (10), MRSA; experiment: Minimum Inhibitory Concentration (MIC); format: cell-based; set-up: unit not given here; conditions: 10 strains
# Description: as §1
# [19] = tested on: Staphylococcus aureus (5), QRS; experiment: Minimum Inhibitory Concentration (MIC); format: cell-based; set-up: unit not given here; conditions: 5 strains
# Description: as §1
# [20] = Chemical Stability Test (HPLC purity on storage); format: physicochemical
# Method: 500 mg of the compound prepared in Example 10 was charged into a glass bottle, and HPLC purities of the compound were measured at the condition of 40° C. and a humidity of 75%, at 1 week, 2 week, 3 week, and 1 month. The HPLC purities were obtained by comparing each of the measured HPLC amounts with the initial HPLC amount.
# [21] = oral, 500, 1,000 and 2,000 mg/kg
# [22] = oral, 1,000, 2,000 and 3,000 mg/kg
molecule,measurement,setting,value
"C[C@@H](O)[C@H]1C(=O)N2C(C(=O)OCOC(=O)C(C)(C)C)=C(SC3CN(Cc4ccc(F)cc4)C3)[C@H](C)[C@H]12 [Example 1, pivaloyloxymethyl(1R,5S,6S)-2-[(1-(4-fluorobenzyl)azetidin-3-yl)thio]-6-[(R)-1-hydroxyethyl]-1-methyl-carbapen-2-em-3-carboxylate]",LD50,I.C.R. mice; [21],"higher than 2,000 mg/kg"
same,body temperature change and weight change,I.C.R. mice; [21],no distinct body temperature change nor weight loss were observed
same,death,I.C.R. mice; [21],no mice died
same,ratio of oral/subcutaneous AUCs,[1],about 52%
same,Cmax (maximum blood concentration),[1]; PO,88.1 µg/mL
same,T1/2 (half time of blood concentration),[1]; PO,0.931 h
same,Tmax (time at the point of maximum blood concentration),[1]; PO,0.38 h
same,AUC (area under blood concentration curve),[1]; PO,117000 ng·h/mL
same,Cmax (maximum blood concentration),[1]; SC,97.9 µg/mL
same,T1/2 (half time of blood concentration),[1]; SC,6.28 h
same,Tmax (time at the point of maximum blood concentration),[1]; SC,1.76 h
same,AUC (area under blood concentration curve),[1]; SC,226000 ng·h/mL
"C[C@@H](O)[C@H]1C(=O)N2C(C(=O)O)=C(SC3CN(Cc4ccc(F)cc4)C3)[C@H](C)[C@H]12 [Preparation Example 4, (1R,5S,6S)-2-[(1-(4-fluorobenzyl)azetidin-3-yl)thio]-6-[(R)-1-hydroxyethyl]-1-methyl-carbapen-2-em-3-carboxylic acid]",MIC,[2],0.03 µg/mL
same,MIC,[3],2 µg/mL
same,MIC,[4],< 0.008 µg/mL
same,MIC,GBBS ATCC 12386,0.03 µg/mL
same,MIC,[5],0.122 µg/mL
same,MIC,Klebsiella oxytoca 1082,0.049 µg/mL
same,MIC,[6],1.56 µg/mL
same,MIC,[7],0.049 µg/mL
same,MIC,[8],0.002 µg/mL
same,MIC,[9],< 0.008 µg/mL
same,MIC,[10],0.015 µg/mL
same,MIC,[11],0.049 µg/mL
same,MIC,[12],0.12 µg/mL
same,MIC,[13],0.013-0.025
same,MIC,[14],0.006-0.12
same,MIC,[15],0.03-0.12
same,MIC,[16],<0.008-0.25
same,MIC,Escherichia coli (4),0.025-0.098
same,MIC,[17],0.06-0.25
same,MIC,[18],0.025-3.125
same,MIC,[19],0.049-0.391
same,Cmax (maximum blood concentration),[1]; PO,3.97 µg/mL
same,T1/2 (half time of blood concentration),[1]; PO,1.32 h
same,Tmax (time at the point of maximum blood concentration),[1]; PO,0.56 h
same,AUC (area under blood concentration curve),[1]; PO,8280 ng·h/mL
same,Cmax (maximum blood concentration),[1]; SC,68.5 µg/mL
same,T1/2 (half time of blood concentration),[1]; SC,0.76 h
same,Tmax (time at the point of maximum blood concentration),[1]; SC,0.38 h
same,AUC (area under blood concentration curve),[1]; SC,83240 ng·h/mL
"C[C@@H](O)[C@H]1C(=O)N2C(C(=O)OCOC(=O)C(C)(C)C)=C(SC3CN(Cc4ccc(F)cc4)C3)[C@H](C)[C@H]12.O=P(O)(O)O [Example 10, Phosphoric Acid Salt of pivaloyloxymethyl(1R,5S,6S)-2-[(1-(4-fluorobenzyl)azetidin-3-yl)thio]-6-[(R)-1-hydroxyethyl]-1-methyl-carbapen-2-em-3-carboxylate]",body temperature change and weight change,I.C.R. mice; [22],no body distinct temperature change nor weight loss were observed
same,death,I.C.R. mice; [22],no mice died
same,HPLC Purity,"[20]; 40° C., humidity 75%, 1 month",99.69%
same,HPLC Purity,"[20]; 40° C., humidity 75%, 1 week",99.85%
same,HPLC Purity,"[20]; 40° C., humidity 75%, 2 week",99.78%
same,HPLC Purity,"[20]; 40° C., humidity 75%, 3 week",99.74%
same,HPLC Purity,[20]; Initial,99.83%
"1-(isopropyloxycarbonyloxy)ethyl(1R,5S,6S)-2-[(1-(4-fluorobenzyl)azetidin-3-yl)thio]-6-[(R)-1-hydroxyethyl]-1-methyl-carbapen-2-em-3-carboxylate [Example 2]",ratio of oral/subcutaneous AUCs,[1],about 54%
same,Cmax (maximum blood concentration),[1]; PO,72.8 µg/mL
same,T1/2 (half time of blood concentration),[1]; PO,1.15 h
same,Tmax (time at the point of maximum blood concentration),[1]; PO,1.00 h
same,AUC (area under blood concentration curve),[1]; PO,94800 ng·h/mL
same,Cmax (maximum blood concentration),[1]; SC,66.4 µg/mL
same,T1/2 (half time of blood concentration),[1]; SC,3.92 h
same,Tmax (time at the point of maximum blood concentration),[1]; SC,0.75 h
same,AUC (area under blood concentration curve),[1]; SC,174000 ng·h/mL
"CC(OC(=O)OC1CCCCC1)OC(=O)C1=C(SC2CN(Cc3ccc(F)cc3)C2)[C@H](C)[C@@H]2[C@@H]([C@@H](C)O)C(=O)N12 (stereo partly drawn) [Example 3, 1-(cyclohexyloxycarbonyloxy)ethyl(1R,5S,6S)-2-[(1-(4-fluorobenzyl)azetidin-3-yl)thio]-6-[(R)-1-hydroxyethyl]-1-methyl-carbapen-2-em-3-carboxylate]",ratio of oral/subcutaneous AUCs,[1],about 113%
same,Cmax (maximum blood concentration),[1]; PO,39.0 µg/mL
same,T1/2 (half time of blood concentration),[1]; PO,1.43 h
same,Tmax (time at the point of maximum blood concentration),[1]; PO,0.59 h
same,AUC (area under blood concentration curve),[1]; PO,64500 ng·h/mL
same,Cmax (maximum blood concentration),[1]; SC,16.2 µg/mL
same,T1/2 (half time of blood concentration),[1]; SC,1.05 h
same,Tmax (time at the point of maximum blood concentration),[1]; SC,2.50 h
same,AUC (area under blood concentration curve),[1]; SC,56900 ng·h/mL
"C[C@@H](O)[C@H]1C(=O)N2C(C(=O)OCOC(=O)C(C)(C)C)=C(SC3CN(Cc4ccc(F)cc4)C3)[C@H](C)[C@H]12.O=C(O)/C=C/C(=O)O [Example 17, Fumaric Acid Salt of pivaloyloxymethyl(1R,5S,6S)-2-[(1-(4-fluorobenzyl)azetidin-3-yl)thio]-6-[(R)-1-hydroxyethyl]-1-methyl-carbapen-2-em-3-carboxylate]",body temperature change and weight change,I.C.R. mice; [22],no body distinct temperature change nor weight loss were observed
same,death,I.C.R. mice; [22],no mice died
